What all share (test): Inhibition Assay
Test [1] concerns the target T1, Amine oxidase [flavin-containing] B (Homo sapiens, UniProt P27338).
T1 sequence (P27338 whole entry): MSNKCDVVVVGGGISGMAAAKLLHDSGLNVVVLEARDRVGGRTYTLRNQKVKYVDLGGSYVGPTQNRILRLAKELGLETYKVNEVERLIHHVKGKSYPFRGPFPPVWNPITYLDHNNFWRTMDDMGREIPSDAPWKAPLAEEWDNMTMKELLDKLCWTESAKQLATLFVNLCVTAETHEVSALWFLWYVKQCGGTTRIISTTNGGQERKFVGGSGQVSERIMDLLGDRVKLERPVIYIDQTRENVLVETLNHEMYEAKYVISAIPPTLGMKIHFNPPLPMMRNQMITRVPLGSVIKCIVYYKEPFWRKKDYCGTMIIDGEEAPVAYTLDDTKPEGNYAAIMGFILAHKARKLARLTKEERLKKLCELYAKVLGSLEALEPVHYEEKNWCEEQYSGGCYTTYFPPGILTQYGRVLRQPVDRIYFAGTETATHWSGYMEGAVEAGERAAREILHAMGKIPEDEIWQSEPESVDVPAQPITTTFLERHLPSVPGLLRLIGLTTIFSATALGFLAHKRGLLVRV
The source says: (§1) Competitive inhibition assay using human and rat MAOs.

In test [2] the target is T2, Amine oxidase [flavin-containing] B (Rattus norvegicus, UniProt P19643).
T2 sequence (P19643 whole entry): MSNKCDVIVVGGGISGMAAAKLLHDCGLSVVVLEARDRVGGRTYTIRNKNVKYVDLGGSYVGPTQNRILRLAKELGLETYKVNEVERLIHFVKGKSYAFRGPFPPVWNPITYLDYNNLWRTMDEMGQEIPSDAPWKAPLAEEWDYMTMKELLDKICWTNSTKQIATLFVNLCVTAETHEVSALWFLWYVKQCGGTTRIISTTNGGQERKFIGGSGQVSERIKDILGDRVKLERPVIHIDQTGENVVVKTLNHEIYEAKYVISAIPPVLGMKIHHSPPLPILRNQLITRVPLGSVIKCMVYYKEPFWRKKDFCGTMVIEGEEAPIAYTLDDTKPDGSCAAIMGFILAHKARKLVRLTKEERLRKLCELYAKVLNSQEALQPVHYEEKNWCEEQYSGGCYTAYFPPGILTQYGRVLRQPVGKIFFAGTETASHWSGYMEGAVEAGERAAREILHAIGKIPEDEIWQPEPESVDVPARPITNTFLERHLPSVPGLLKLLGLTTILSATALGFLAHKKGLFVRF
From the text: as §1

In test [3] the target is T3, Amine oxidase [flavin-containing] A (Homo sapiens, UniProt P21397).
T3 sequence (P21397 whole entry): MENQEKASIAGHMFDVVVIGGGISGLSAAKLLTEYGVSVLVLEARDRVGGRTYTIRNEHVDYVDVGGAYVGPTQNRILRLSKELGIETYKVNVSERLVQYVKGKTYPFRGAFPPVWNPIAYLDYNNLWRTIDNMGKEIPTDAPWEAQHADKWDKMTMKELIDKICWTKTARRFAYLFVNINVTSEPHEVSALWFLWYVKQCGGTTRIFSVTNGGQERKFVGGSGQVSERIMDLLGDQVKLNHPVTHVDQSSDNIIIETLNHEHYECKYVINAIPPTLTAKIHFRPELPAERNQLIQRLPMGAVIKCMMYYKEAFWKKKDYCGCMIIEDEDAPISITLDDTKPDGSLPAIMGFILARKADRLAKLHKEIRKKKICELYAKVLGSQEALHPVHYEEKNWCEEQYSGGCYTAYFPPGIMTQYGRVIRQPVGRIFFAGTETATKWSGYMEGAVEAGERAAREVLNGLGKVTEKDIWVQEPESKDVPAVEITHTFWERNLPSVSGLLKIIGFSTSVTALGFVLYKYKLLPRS
From the text: as §1

Test [4] concerns the target T4, Amine oxidase [flavin-containing] A (Rattus norvegicus, UniProt P21396).
T4 sequence (P21396 whole entry): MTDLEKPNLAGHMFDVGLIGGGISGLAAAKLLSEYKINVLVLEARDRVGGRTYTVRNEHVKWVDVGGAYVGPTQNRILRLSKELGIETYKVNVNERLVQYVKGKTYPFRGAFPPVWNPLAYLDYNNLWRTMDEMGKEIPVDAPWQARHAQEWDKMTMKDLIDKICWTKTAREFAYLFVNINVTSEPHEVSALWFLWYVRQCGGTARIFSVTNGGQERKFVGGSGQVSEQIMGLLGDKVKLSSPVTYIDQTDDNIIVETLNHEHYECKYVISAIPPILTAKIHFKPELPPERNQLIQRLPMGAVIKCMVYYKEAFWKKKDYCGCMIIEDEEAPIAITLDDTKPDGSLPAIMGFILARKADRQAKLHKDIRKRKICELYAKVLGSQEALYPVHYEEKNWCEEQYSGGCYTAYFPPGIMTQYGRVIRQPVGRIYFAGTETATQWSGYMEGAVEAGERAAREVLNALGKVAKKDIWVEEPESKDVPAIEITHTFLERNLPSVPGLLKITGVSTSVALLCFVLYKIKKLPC
From the text: as §1

As a reminder, the Ki is a dissociation constant, usually derived from enzyme kinetics or from competition with a known ligand. Higher therefore signals weaker binding.

With `C#CCN(C)Cc1ccc(CC(=O)NC2CC(C)(C)N(O)C(C)(C)C2)cc1` [ParSL], the Ki in test [1] was determined as 22 µM; in test [2] it was 107 µM; in test [3] it was 212 µM; in test [4], 151 µM.

The values above are taken from BindingDB's records for doi:10.1021/bi7019707 (Emory University, 2008).
